{"source": "patent US20130304029A1", "about": "“LOADING AND RELEASE OF WATER-INSOLUBLE DRUGS” (Boston Scientific Scimed, Inc., priority 1997, published 2013)", "key": {"[1]": {"assay": "Saturation concentration of paclitaxel in ethanol", "assay_type": "physicochemical", "description": "Nevertheless, the 30 mg/ml paclitaxel concentration is chosen for release studies as it produces the maximum paclitaxel loading (21-23%), while still being sufficiently below the saturation concentration for paclitaxel in ethanol (39 mg/ml)."}, "[2]": {"assay": "In-vivo delivery of paclitaxel from polyacrylic acid-based coated balloon catheter", "parameters": "species or system pig", "details": "for Amount of paclitaxel released in bloodstream: loaded minus extracted; for Amount of paclitaxel extracted from balloon after delivery: polyacrylic acid-based coated balloon catheter", "description": "A 9.8 mg/ml solution of radio-labeled paclitaxel in chloroform is prepared. A total of 50 μl of the solution is applied via pipet to a balloon catheter having a polyacrylic acid-based coating. The paclitaxel from the coated balloon catheter is then released in-vivo to porcine arteries. After release for a predetermined amount of time, the paclitaxel remaining in the coating is extracted using two sequential ethanol washes. The amount of paclitaxel released in the pig bloodstream, as calculated from the amount of paclitaxel loaded into the coating minus that extracted from the coating after delivery, is shown in Table II."}, "[3]": {"assay": "Paclitaxel content of polyurethane coated stents by extraction in dichloromethane", "assay_type": "physicochemical", "details": "30 mg/ml paclitaxel concentration", "description": "Slotted tube stainless steel stents are coated with polyurethane by spraying a 1 wt % solution of CHRONOFLEX® polyurethane (made by CT Biomaterials) in tetrahydrofuran directly onto the stent surface. The coated stents are dried in a vacuum oven for three hours at 70° C.\nEach polyurethane coated stent is placed in a vial, which is filled to maximum volume (1.5 ml) with a solution of paclitaxel in ethanol, and sealed. The stent is stored in the vial for three days at room temperature. The stent is then removed from the vial and dried for one hour at 65° C.\nThe above procedure is conducted using solutions of varying concentrations. Each stent is analyzed for paclitaxel content by extraction in dichloromethane solvent. Samples 1 and 2 were obtained using a paclitaxel concentration of 10 mg/ml, samples 3 and 4 using a 20 mg/ml solution and sample 5 and 6 using a 30 mg/ml solution.\nSeven polyurethane coated stents are loaded using a 30 mg/ml paclitaxel solution, removed and dried as set forth above. Paclitaxel from four of the stents is extracted in dichloromethane solvent."}}}
{"smiles": "CC(=O)O[C@H]1C(=O)[C@@]2(C)[C@H]([C@H](OC(=O)c3ccccc3)[C@]3(O)C[C@H](OC(=O)[C@H](O)[C@@H](NC(=O)c4ccccc4)c4ccccc4)C(C)=C1C3(C)C)[C@]1(OC(C)=O)CO[C@@H]1C[C@@H]2O", "note": "[paclitaxel]", "values": [{"measurement": "saturation concentration for paclitaxel in ethanol", "setting": "[1]", "result": 39, "unit": "mg/mL"}, {"measurement": "% of paclitaxel released in bloodstream", "setting": "[2]; 1 minute in bloodstream", "result": 63, "unit": "%"}, {"measurement": "Amount of paclitaxel released in bloodstream", "setting": "[2]; 1 minute in bloodstream", "result": 307, "unit": "µg"}, {"measurement": "Amount of paclitaxel extracted from balloon after delivery", "setting": "[2]; 1 minute in bloodstream", "result": "182 ± 1", "unit": "µg"}, {"measurement": "% of paclitaxel released in bloodstream", "setting": "[2]; 5 minutes in bloodstream", "result": 68, "unit": "%"}, {"measurement": "Amount of paclitaxel released in bloodstream", "setting": "[2]; 5 minutes in bloodstream", "result": 330, "unit": "µg"}, {"measurement": "Amount of paclitaxel extracted from balloon after delivery", "setting": "[2]; 5 minutes in bloodstream", "result": "160 ± 30", "unit": "µg"}, {"measurement": "maximum paclitaxel loading", "setting": "[3]", "result": "21-23%"}]}
